Results on 34 compounds are retold here after ChEMBL document CHEMBL5154848, “Synthesis of heterocyclic ring-fused analogs of HMG499 as novel degraders of HMG-CoA reductase that lower cholesterol” (Eur J Med Chem, 2022).

pEC50: −log10 of the molar value.

Broadly, the pEC50 is the negative decadic logarithm of the EC50, by convention in mol/L.

Data set [1] concerns the target T1, 3-hydroxy-3-methylglutaryl-coenzyme A reductase (Cricetulus griseus, UniProt P00347).
T1 sequence (P00347 whole entry): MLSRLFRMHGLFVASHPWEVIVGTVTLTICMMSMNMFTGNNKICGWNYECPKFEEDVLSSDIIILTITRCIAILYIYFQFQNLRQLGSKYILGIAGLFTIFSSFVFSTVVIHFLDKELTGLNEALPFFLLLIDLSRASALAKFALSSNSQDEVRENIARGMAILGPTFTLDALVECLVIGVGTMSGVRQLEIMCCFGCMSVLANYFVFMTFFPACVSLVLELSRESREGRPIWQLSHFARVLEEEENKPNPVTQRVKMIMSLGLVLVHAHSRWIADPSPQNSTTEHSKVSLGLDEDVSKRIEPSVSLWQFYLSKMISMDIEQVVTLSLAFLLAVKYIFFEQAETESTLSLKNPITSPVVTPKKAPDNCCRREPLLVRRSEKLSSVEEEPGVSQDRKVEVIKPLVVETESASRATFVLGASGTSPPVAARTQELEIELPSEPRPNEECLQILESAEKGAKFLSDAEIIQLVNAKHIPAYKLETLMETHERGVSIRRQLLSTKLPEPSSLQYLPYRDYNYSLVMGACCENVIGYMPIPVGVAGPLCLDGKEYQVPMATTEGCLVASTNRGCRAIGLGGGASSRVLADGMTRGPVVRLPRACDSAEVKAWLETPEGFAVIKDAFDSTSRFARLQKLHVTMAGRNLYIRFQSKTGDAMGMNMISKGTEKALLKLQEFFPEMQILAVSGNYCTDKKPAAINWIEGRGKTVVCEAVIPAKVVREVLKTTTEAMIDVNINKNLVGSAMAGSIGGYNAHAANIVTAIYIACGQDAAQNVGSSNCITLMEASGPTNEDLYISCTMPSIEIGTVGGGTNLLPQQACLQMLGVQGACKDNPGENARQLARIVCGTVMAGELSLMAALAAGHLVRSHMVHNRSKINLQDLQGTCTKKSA
Briefly: Induction of degradation of hamster HMGCR (TM1-8)-GFP (1 to 346 residues) transfected in CHO-7 cells incubated for 16 hrs in sterol-depleted medium by fluorescence based microplate reader assay. It counts as cell-based.

Data set [2] is described as follows: Toxicity in human SV589 cells assessed as cholesterol accumulation in lysosome at 10 uM incubated for 16 hrs by immunofluorescence based confocal microscopy. The data set is classed as cell-based. The following applies: sv-589, 16 h.

With `CC(=O)n1cnc2c1C(C)(C)C1=CC[C@H]3[C@@H]4CC[C@H]([C@H](C)CCCC(=O)N5CCOCC5)[C@@]4(C)CC[C@@H]3[C@@]1(C)C2`, the pEC50 in data set [1] was 6.01. For the compound `CCC(O)(CC)CC[C@@H](C)[C@H]1CC[C@H]2[C@@H]3CC=C4C(C)(C)c5c(ncn5C(C)=O)C[C@]4(C)[C@H]3CC[C@]12C`, in data set [2], the Activity entry is “Non-Toxic”. This compound also had a pEC50 in data set [1] of 6.20. As for `CC(=O)n1ncc2c1C(C)(C)C1=CC[C@H]3[C@@H]4CC[C@H]([C@H](C)CCC(=O)NC5CCOCC5)[C@@]4(C)CC[C@@H]3[C@@]1(C)C2`, in data set [1], the pEC50 is 6.32. Take `CC(=O)n1ncc2c1C(C)(C)C1=CC[C@H]3[C@@H]4CC[C@H]([C@H](C)CCC(=O)O)[C@@]4(C)CC[C@@H]3[C@@]1(C)C2`: in data set [2], the Activity result is recorded as “Non-Toxic”. The compound further showed a pEC50 in data set [1] of 5.58.

Take `C[C@H](CCCCC(C)(C)O)[C@H]1CC[C@H]2[C@@H]3[C@@H](O)C=C4C(C)(C)[C@@H](O)CC[C@]4(C)[C@H]3CC[C@]12C`: in data set [2], the Activity entry is recorded as “Toxic”. The compound further gave a negative-log EC50 (pEC50) in data set [1] of 6.39. The matching figures for `C=C(C)C(=O)n1cnc2c1C(C)(C)C1=CC[C@H]3[C@@H]4CC[C@H]([C@H](C)CCC(=O)N5CCOCC5)[C@@]4(C)CC[C@@H]3[C@@]1(C)C2`: “Non-Toxic” and 6.12. The matching figures for `C=CCC(O)(CC=C)CCC[C@@H](C)[C@H]1CC[C@H]2[C@@H]3[C@@H](O)C=C4C(C)(C)[C@@H](O)CC[C@]4(C)[C@H]3CC[C@]12C.Cl`: “Toxic” and 6.37. Consider `CC(=O)n1cnc2c1C(C)(C)C1=CC[C@H]3[C@@H]4CC[C@H]([C@H](C)CC(=O)N5CCOCC5)[C@@]4(C)CC[C@@H]3[C@@]1(C)C2`, for which, in data set [1], the pEC50 is 6.55. Take `C[C@H](CCC(=O)O)[C@H]1CC[C@H]2[C@@H]3CC=C4C(C)(C)c5[nH]ncc5C[C@]4(C)[C@H]3CC[C@]12C`: the Activity entry in data set [2] was “Non-Toxic”. Besides, the pEC50 in data set [1] is 5.40.

On to `C[C@H](CCC(=O)N1CCOCC1)[C@H]1CC[C@H]2[C@@H]3CC=C4C(C)(C)c5nc(N)ncc5C[C@]4(C)[C@H]3CC[C@]12C`, for which the pEC50 in data set [1] was 5.08.

In data set [1], `CCOC(=O)c1n[nH]c2c1C[C@@]1(C)C(=CC[C@H]3[C@@H]4CC[C@H]([C@H](C)CCC(=O)N5CCOCC5)[C@@]4(C)CC[C@@H]31)C2(C)C` had a pEC50 of 6.28. In data set [1], `CC(=O)n1ncc2c1C(C)(C)C1=CC[C@H]3[C@@H]4CC[C@H]([C@H](C)CCC(=O)N5CCCCC5)[C@@]4(C)CC[C@@H]3[C@@]1(C)C2` had a negative-log EC50 (pEC50) of 5.90.

Regarding `CC(C)C(=O)n1cnc2c1C(C)(C)C1=C[C@H](O)[C@H]3[C@@H]4CC[C@H]([C@H](C)CCC(=O)N5CCOCC5)[C@@]4(C)CC[C@@H]3[C@@]1(C)C2`, the Activity entry in data set [2] is recorded as “Toxic”. The pEC50 in data set [1] was 6.14. Regarding `CCOC(=O)c1noc2c1C[C@@]1(C)C(=CC[C@H]3[C@@H]4CC[C@H]([C@H](C)CCC(=O)N5CCOCC5)[C@@]4(C)CC[C@@H]31)C2(C)C`, the pEC50 in data set [1] was 5.74.

Turning to `CCC(=O)n1cnc2c1C(C)(C)C1=CC[C@H]3[C@@H]4CC[C@H]([C@H](C)CCC(=O)N5CCOCC5)[C@@]4(C)CC[C@@H]3[C@@]1(C)C2`, the Activity result in data set [2] is “Non-Toxic”. For the same compound, in data set [1], the pEC50 is 6.19. As for `CCCNC(=O)CC[C@@H](C)[C@H]1CC[C@H]2[C@@H]3CC=C4C(C)(C)c5c(cnn5C(C)=O)C[C@]4(C)[C@H]3CC[C@]12C`, the pEC50 in data set [1] was 5.69. The same measure, in the same setting: to `CC(=O)n1ncc2c1C(C)(C)C1=CC[C@H]3[C@@H]4CC[C@H]([C@H](C)CCC(=O)Nc5ccc(C)cc5)[C@@]4(C)CC[C@@H]3[C@@]1(C)C2` belongs 5.27; to `CC(=O)n1ncc2c1C(C)(C)C1=CC[C@H]3[C@@H]4CC[C@H]([C@H](C)CCC(=O)Nc5ncc([N+](=O)[O-])s5)[C@@]4(C)CC[C@@H]3[C@@]1(C)C2`, 5.32. On the same count and under the same terms, the result for `CC(=O)n1ncc2c1C(C)(C)C1=CC[C@H]3[C@@H]4CC[C@H]([C@H](C)CCC(=O)Nc5ccccc5C)[C@@]4(C)CC[C@@H]3[C@@]1(C)C2` reads 5.35; that for `C[C@H](CCC(=O)N1CCOCC1)[C@H]1CC[C@H]2[C@@H]3CC=C4C(C)(C)c5nnsc5C[C@]4(C)[C@H]3CC[C@]12C`, 6.08. Turning to `C[C@H](CCC(=O)O)[C@H]1CC[C@H]2[C@@H]3CC=C4C(C)(C)c5nonc5C[C@]4(C)[C@H]3CC[C@]12C`, the Activity entry in data set [2] is on record as “Non-Toxic”. Besides, in data set [1], the pEC50 is 5.24. The corresponding values for `C[C@H](CCC(=O)O)[C@H]1CC[C@H]2[C@@H]3CC=C4C(C)(C)c5c(cnn5-c5ccccc5)C[C@]4(C)[C@H]3CC[C@]12C` are “Non-Toxic” and 5.06. In turn, `CC(=O)n1ncc2c1C(C)(C)C1=CC[C@H]3[C@@H]4CC[C@H]([C@H](C)CCC(=O)Nc5nc6ccccc6s5)[C@@]4(C)CC[C@@H]3[C@@]1(C)C2` had a pEC50 in data set [1] of 4.50. Regarding `CC(=O)n1cnc2c1C(C)(C)C1=CC[C@H]3[C@@H]4CC[C@H]([C@H](C)CCCCC(=O)N5CCOCC5)[C@@]4(C)CC[C@@H]3[C@@]1(C)C2`, in data set [1], the pEC50 is 5.96. Against the preceding compound, the pEC50 is 1.46 log units higher. On to `CCNC(=O)CC[C@@H](C)[C@H]1CC[C@H]2[C@@H]3CC=C4C(C)(C)c5c(cnn5C(C)=O)C[C@]4(C)[C@H]3CC[C@]12C`, for which the pEC50 in data set [1] is 5.79.

Compound `CC(=O)N1CCC(NC(=O)CC[C@@H](C)[C@H]2CC[C@H]3[C@@H]4CC=C5C(C)(C)c6c(cnn6C(C)=O)C[C@]5(C)[C@H]4CC[C@]23C)CC1` gave a pEC50 in data set [1] of 6.37.

In data set [1], `CNC(=O)CC[C@@H](C)[C@H]1CC[C@H]2[C@@H]3CC=C4C(C)(C)c5c(cnn5C(C)=O)C[C@]4(C)[C@H]3CC[C@]12C` gave a pEC50 of 6.09. This pEC50 lies 0.28 log units lower than the previous one. On the same count and under the same terms, the result for `Cc1nc2c(o1)C(C)(C)C1=CC[C@H]3[C@@H]4CC[C@H]([C@H](C)CCC(=O)N5CCOCC5)[C@@]4(C)CC[C@@H]3[C@@]1(C)C2` reads 4.55.

In the case of `CCC(O)(CC)CCC[C@@H](C)[C@H]1CC[C@H]2[C@@H]3[C@@H](O)C=C4C(C)(C)[C@@H](O)CC[C@]4(C)[C@H]3CC[C@]12C`, the Activity entry in data set [2] was “Toxic”. Besides, the pEC50 in data set [1] was 6.39.

In the case of `CCCC(=O)n1cnc2c1C(C)(C)C1=CC[C@H]3[C@@H]4CC[C@H]([C@H](C)CCC(=O)N5CCOCC5)[C@@]4(C)CC[C@@H]3[C@@]1(C)C2`, the Activity result in data set [2] is listed as “Non-Toxic”. Further, the pEC50 in data set [1] is 6.28. `CC(=O)n1ncc2c1C(C)(C)C1=CC[C@H]3[C@@H]4CC[C@H]([C@H](C)CCC(=O)Nc5ncc(C)s5)[C@@]4(C)CC[C@@H]3[C@@]1(C)C2` gave a pEC50 in data set [1] of 4.90. Same read-out and setting: the result for `CC(=O)n1ncc2c1C(C)(C)C1=CC[C@H]3[C@@H]4CC[C@H]([C@H](C)CCC(=O)NCCN5CCOCC5)[C@@]4(C)CC[C@@H]3[C@@]1(C)C2` reads 5.56.

On to `CC(=O)n1ncc2c1C(C)(C)C1=CC[C@H]3[C@@H]4CC[C@H]([C@H](C)CCC(=O)Nc5nc6c(C)cccc6s5)[C@@]4(C)CC[C@@H]3[C@@]1(C)C2`, for which the pEC50 in data set [1] is 4.36. For `CC(=O)n1cnc2c1C(C)(C)C1=CC[C@H]3[C@@H]4CC[C@H]([C@H](C)C(=O)N5CCOCC5)[C@@]4(C)CC[C@@H]3[C@@]1(C)C2`, the pEC50 in data set [1] was 6.39.
